Legend:
AMPK = experiment: Measurement of AMPK activity by Western blot in C2C12 cells; format: cell-based; set-up: key to AMPK activity (degree of phosphorylation of serine-79 and threonine-172): fold increase in threonine-172 phosphorylation; conditions: 10 μM for 50 minutes; for AMPK activity (class: degree of phosphorylation of threonine-172): strong/mild/weak; for AMPK activity (degree of phosphorylation of serine-79 and threonine-172): no superscript: Western blot of serine-79 and threonine-172 phosphorylation
Summary of the method: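 Differentiated C2C12 cells were exposed to test material at 10 μM for 50 minutes, then lysed. AMPK activity was taken from Western blots of Thr-172 phosphorylation and acetyl CoA carboxylase Ser-79 phosphorylation, with ERK as loading reference. Thr-172 rise was graded strong (≥3-fold), mild (1-3-fold) or weak (<1-fold).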

C2C12 muscle cells = experiment: Analysis of glucose absorption (2-deoxyglucose) in differentiated C2C12 muscle cells; format: cell-based; conditions: test materials 10 μM, times relative to control group
Summary of the method: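 Differentiated C2C12 myotubes (6 days in 1% serum) held 3 h in KRB with 5 mM glucose, then given test material at 10 μM. After 30 min, 0.2 μCi 2-deoxyglucose added for 20 min; uptake measured by radioactive counting of NaOH lysates.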

Row | Structure (SMILES) | AMPK activity (class: degree of phosphorylation of threonine-172) (AMPK) | Glucose absorption (C2C12 muscle cells) | AMPK activity (degree of phosphorylation of serine-79 and threonine-172) (AMPK)
1 | CCSc1nc(NCc2c(F)cccc2Cl)c2ccccc2n1 [Compound 49, (2-Chloro-6-fluorobenzyl)-(2-ethylsulfanylquinazolino-4-yl)-amine] | mild (“mild” means that the degree of phosphorylation of threonine-172 increased by 1 to 3 times) | 1.8 | 
2 | CCCNc1nc(-c2ccccc2)nc2ccccc12 [Compound 61, (2-Phenylquinazolino-4-yl)-propylamine] | weak (“weak” means that the degree of phosphorylation of threonine-172 increased by less than 1 time) | 1.9 | 
3 | c1ccc(-c2nc(NCCN3CCCCC3)c3ccccc3n2)cc1 [Compound 101, (2-Phenylquinazolino-4-yl)-(2-piperidino-1-ylethyl)-amine] | weak (“weak” means that the degree of phosphorylation of threonine-172 increased by less than 1 time) | 1.5 | 
4 | Fc1cccc(CCNc2nc(-c3ccccc3)nc3ccccc23)c1 [Compound 103, [2-(3-Fluorophenyl)-ethyl]-(2-phenylquinazolino-4-yl)-amine] | strong (“strong” means that the degree of phosphorylation of threonine-172 increased by 3 times or more) | 2.2 | 2.6
5 | c1ccc(-c2nc(NCCN3CCOCC3)c3ccccc3n2)cc1 [Compound 106, (2-Morpholino-4-ylethyl)-(2-phenylquinazolino-4-yl)-amine] | mild (“mild” means that the degree of phosphorylation of threonine-172 increased by 1 to 3 times) | 1.8 | 1.3
6 | Clc1ccc(CNc2nc(-c3ccccc3)nc3ccccc23)c(Cl)c1 [Compound 108, (2,4-Dichlorobenzyl)-(2-phenylquinazolino-4-yl)-amine] | strong (“strong” means that the degree of phosphorylation of threonine-172 increased by 3 times or more) | 2.2 | 2.2
7 | Clc1ccccc1CNc1nc(-c2ccccc2)nc2ccccc12 [Compound 109, (2-Chlorobenzyl)-(2-phenylquinazolino-4-yl)-amine] | strong (“strong” means that the degree of phosphorylation of threonine-172 increased by 3 times or more) | 1.3 | 1.9
8 | c1ccc(-c2nc(NC3CC3)c3ccccc3n2)cc1 [Compound 110, Cyclopropyl-(2-phenylquinazolino-4-yl)-amine] | strong (“strong” means that the degree of phosphorylation of threonine-172 increased by 3 times or more) | 2.0 | 1.6
9 | c1ccc(-c2nc(NCc3cccnc3)c3ccccc3n2)cc1 [Compound 111, (2-Phenylquinazolino-4-yl)-pyridino-3-ylmethylamine] | strong (“strong” means that the degree of phosphorylation of threonine-172 increased by 3 times or more) | 2.4 | 1.8
10 | CC(CO)Nc1nc(-c2ccccc2)nc2ccccc12 (stereo not drawn) [Compound 112, 2-(2-Phenylquinazolino-4-ylamino)-propane-1-ol] | strong (“strong” means that the degree of phosphorylation of threonine-172 increased by 3 times or more) | 1.9 | 1.7
11 | COc1cc(CNc2nc(-c3ccccc3)nc3ccccc23)ccc1O [Compound 113, 2-Methoxy-4-[(2-phenylquinazolino-4-ylamino)-methyl]-phenol] | strong (“strong” means that the degree of phosphorylation of threonine-172 increased by 3 times or more) | 2.1 | 2.1
12 | FCCNc1nc(-c2ccccc2)nc2ccccc12 [Compound 114, (2-Fluoro-ethyl)-(2-phenylquinazolino-4-yl)-amine] | strong (“strong” means that the degree of phosphorylation of threonine-172 increased by 3 times or more) | 2.2 | 2.0
13 | Clc1cccc(CNc2nc(-c3ccccc3)nc3ccccc23)c1Cl [Compound 115, (2,3-Dichlorobenzyl)-(2-phenylquinazolino-4-yl)-amine] | strong (“strong” means that the degree of phosphorylation of threonine-172 increased by 3 times or more) | 2.3 | 2.3
14 | O=[N+]([O-])c1cccc(CNc2nc(-c3ccccc3)nc3ccccc23)c1 [Compound 116, (3-Nitrobenzyl)-(2-phenylquinazolino-4-yl)-amine] | strong (“strong” means that the degree of phosphorylation of threonine-172 increased by 3 times or more) | 2.5 | 2.0
15 | COc1ccc(CNc2nc(-c3ccccc3)nc3ccccc23)cc1OC [Compound 118, (3,4-Dimethoxybenzyl)-(2-phenylquinazolino-4-yl)-amine] | strong (“strong” means that the degree of phosphorylation of threonine-172 increased by 3 times or more) | 2.1 | 2.0
16 | Cc1ccc(CCNc2nc(-c3ccccc3)nc3ccccc23)cc1 [Compound 119, (2-Phenylquinazolino-4-yl)-(2-p-tollylethyl)-amine] | strong (“strong” means that the degree of phosphorylation of threonine-172 increased by 3 times or more) | 2.6 | 2.3
17 | CCC(CC)Nc1nc(-c2ccccc2)nc2ccccc12 [Compound 121, (1-Ethylpropyl)-(2-phenylquinazolino-4-yl)-amine] | strong (“strong” means that the degree of phosphorylation of threonine-172 increased by 3 times or more) | 2.4 | 2.2
18 | Clc1ccc(CCNc2nc(-c3ccccc3)nc3ccccc23)cc1 [Compound 123, [2-(4-chlorophenyl)-ethyl]-(2-phenylquinazolino-4-yl)-amine] | strong (“strong” means that the degree of phosphorylation of threonine-172 increased by 3 times or more) | 2.1 | 2.3
19 | CC(C)CC(C)Nc1nc(-c2ccccc2)nc2ccccc12 (stereo not drawn) [Compound 125, (1,3-Dimethylbutyl)-(2-phenylquinazolino-4-yl)-amine] | strong (“strong” means that the degree of phosphorylation of threonine-172 increased by 3 times or more) | 2.8 | 1.8
20 | Clc1cccc(CCNc2nc(-c3ccccc3)nc3ccccc23)c1 [Compound 126, [2-(3-Chlorophenyl)-ethyl]-(2-phenylquinazolino-4-yl)-amine] | strong (“strong” means that the degree of phosphorylation of threonine-172 increased by 3 times or more) | 2.1 | 2.0
21 | Fc1ccc(CCNc2nc(-c3ccccc3)nc3ccccc23)cc1F [Compound 128, [2-(3,4-Difluorophenyl)-ethyl]-(2-phenylquinazolino-4-yl)-amine] | strong (“strong” means that the degree of phosphorylation of threonine-172 increased by 3 times or more) | 2.3 | 1.7
22 | CC(C)CCNc1nc(-c2ccccc2)nc2ccccc12 [Compound 130, (3-Methylbutyl)-(2-phenylquinazolino-4-yl)-amine] | strong (“strong” means that the degree of phosphorylation of threonine-172 increased by 3 times or more) | 2.2 | 1.8
23 | C1=C(CCNc2nc(-c3ccccc3)nc3ccccc23)CCCC1 [Compound 131, (2-Cyclohex-1-enylethyl)-(2-phenylquinazolino-4-yl)-amine] | strong (“strong” means that the degree of phosphorylation of threonine-172 increased by 3 times or more) | 2.3 | 1.8
24 | c1ccc(-c2nc(NCC(c3ccccc3)c3ccccc3)c3ccccc3n2)cc1 [Compound 133, (2,2-Diphenylethyl)-(2-phenylquinazolino-4-yl)-amine] | mild (“mild” means that the degree of phosphorylation of threonine-172 increased by 1 to 3 times) | 2.1 | 1.3
25 | Fc1ccc(CNc2nc(-c3ccccc3)nc3ccccc23)c(F)c1 [Compound 134, (2,4-Difluorobenzyl)-(2-phenylquinazolino-4-yl)-amine] | strong (“strong” means that the degree of phosphorylation of threonine-172 increased by 3 times or more) | 2.6 | 1.8

From patent US20080207614A1, “QUINAZOLINE DERIVATIVES FOR THE TREATMENT AND PREVENTION OF DIABETES AND OBESITY” (SK CHEMICALS CO., LTD., priority 2004, published 2008)
